# Measured values from the supplement of paper PMC10307832.
# Columns and labels:
# Experiment in all cases: relative viability (nuclei count vs DMSO), 5 days (fraction); higher = more cells survive
# [1] = compound: CCC1=CN=CN=C1N2CCN(CC2)CC3=NC4=C(N3)C=C(C=C4)C(F)(F)F + NC(=O)Nc1cc(-c2cccc(F)c2)sc1C(=O)N[C@H]1CCCNC1 [AZD7762] (partner 0.2 µM)
# Outline: (§1)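 After 5 days of treatment, lung cancer cells in 1536-well plates were fixed and stained in a single step (final 0.05% Triton X-100, 1% formaldehyde, 1 ug/ml Hoechst) and their nuclei counted on 4× images. Treatment had been applied by pin tool the day after seeding as one drug alone or as a fixed anchor-drug dose with five library-drug doses (not always all listed) in √10 steps. Relative viability is the nuclei count of treated wells divided by that of vehicle wells, and values are medians of duplicate plates.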
# [2] = compound: CCC1=CN=CN=C1N2CCN(CC2)CC3=NC4=C(N3)C=C(C=C4)C(F)(F)F + O=C(CCCCCCC(=O)Nc1ccccc1)NO [Vorinostat] (partner 1 µM)
# Outline: as §1
# [3] = compound: CCC1=CN=CN=C1N2CCN(CC2)CC3=NC4=C(N3)C=C(C=C4)C(F)(F)F + O=C(c1cc(Cc2n[nH]c(=O)c3ccccc23)ccc1F)N1CCN(C(=O)C2CC2)CC1 [Olaparib] (partner 8 µM)
# Outline: as §1
# [4] = compound: CCn1c(-c2nonc2N)nc2cnc(Oc3cccc(NC(=O)c4ccc(OCCN5CCOCC5)cc4)c3)cc21 + O=C(CCCCCCC(=O)Nc1ccccc1)NO [Vorinostat] (partner 1 µM)
# Outline: as §1
Cell Line,relative viability ([1]; first compound 0.04 µM),relative viability ([1]; first compound 0.1265 µM),relative viability ([1]; first compound 0.4 µM),relative viability ([1]; first compound 1.265 µM),relative viability ([1]; first compound 4 µM),relative viability ([2]; first compound 0.04 µM),relative viability ([2]; first compound 0.1265 µM),relative viability ([2]; first compound 0.4 µM),relative viability ([2]; first compound 1.265 µM),relative viability ([2]; first compound 4 µM),relative viability ([3]; first compound 0.04 µM),relative viability ([3]; first compound 0.1265 µM),relative viability ([3]; first compound 0.4 µM),relative viability ([3]; first compound 1.265 µM),relative viability ([3]; first compound 4 µM),relative viability ([4]; first compound 0.04 µM),relative viability ([4]; first compound 0.1265 µM),relative viability ([4]; first compound 0.4 µM),relative viability ([4]; first compound 1.265 µM),relative viability ([4]; first compound 4 µM)
NCI-H1793,0.548,0.407,0.392,0.334,0.347,0.568,0.668,0.531,0.536,0.647,0.736,0.754,0.697,0.564,0.784,0.721,0.712,0.602,0.424,0.496
LU99A,0.41,0.301,0.34,0.359,0.403,0.608,0.486,0.528,0.466,0.652,0.308,0.282,0.276,0.28,0.301,0.583,0.376,0.3,0.427,0.384
PC-3 [JPC-3],–,0.688,0.69,0.683,0.808,–,0.737,0.738,0.701,0.885,–,1.02,1.13,1.02,0.977,0.919,0.701,0.713,0.549,0.692
NCI-H2085,0.75,0.941,0.987,0.791,1.03,0.728,0.709,0.697,0.763,0.766,0.717,0.692,0.728,0.777,0.72,0.735,0.633,0.579,0.54,0.585
NCI-H2170,0.899,0.832,0.83,0.724,0.941,0.787,0.731,0.778,0.724,0.815,0.632,0.574,0.571,0.537,0.601,0.797,0.8,0.763,0.538,0.484
HCC-78,0.564,0.559,0.668,0.525,0.631,0.528,0.405,0.47,0.4,0.409,0.893,0.669,0.79,0.588,0.78,0.43,0.42,–,0.505,0.638
NCI-H1395,0.398,0.349,0.37,–,0.474,0.575,0.574,0.7,–,0.748,0.459,0.482,0.461,–,0.469,0.753,0.604,0.658,0.441,0.44
H3255,0.86,0.852,0.824,0.931,0.874,0.946,0.576,0.929,0.762,0.754,0.597,0.535,0.556,0.504,0.521,0.92,0.743,0.686,0.618,0.568
HCC-15,1.3,1.11,1.1,1.32,1.32,0.864,0.831,0.789,0.76,0.82,0.688,0.727,0.685,0.762,0.668,0.938,0.785,0.81,0.767,0.718
